From patent US10093678B2, “Azaspiro derivatives as TRPM8 antagonists” (RaQualia Pharma Inc., priority 2014, dated 2018)

Target: T1, human TRPM8 (Homo sapiens, UniProt Q7Z2W7)
T1 construct: expressed in transfected cells; host or cells: HEK293
Assay: Menthol-induced Ca2+ influx in HEK293 cells stably expressing human TRPM8
Type: cell-based
Details: 30 microM menthol-induced Ca2+ influx, read-out: IC50 against TRPM8
In short: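 HEK293 cells stably expressing human TRPM8 were loaded with Fluo4-AM for 1 h at room temperature, preincubated 5 min with compound, then challenged with 30 microM menthol. Calcium rise was read by FDSS imaging. IC50 came from 11-point curves using duplicate-well means.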

T1 sequence (Q7Z2W7 whole entry): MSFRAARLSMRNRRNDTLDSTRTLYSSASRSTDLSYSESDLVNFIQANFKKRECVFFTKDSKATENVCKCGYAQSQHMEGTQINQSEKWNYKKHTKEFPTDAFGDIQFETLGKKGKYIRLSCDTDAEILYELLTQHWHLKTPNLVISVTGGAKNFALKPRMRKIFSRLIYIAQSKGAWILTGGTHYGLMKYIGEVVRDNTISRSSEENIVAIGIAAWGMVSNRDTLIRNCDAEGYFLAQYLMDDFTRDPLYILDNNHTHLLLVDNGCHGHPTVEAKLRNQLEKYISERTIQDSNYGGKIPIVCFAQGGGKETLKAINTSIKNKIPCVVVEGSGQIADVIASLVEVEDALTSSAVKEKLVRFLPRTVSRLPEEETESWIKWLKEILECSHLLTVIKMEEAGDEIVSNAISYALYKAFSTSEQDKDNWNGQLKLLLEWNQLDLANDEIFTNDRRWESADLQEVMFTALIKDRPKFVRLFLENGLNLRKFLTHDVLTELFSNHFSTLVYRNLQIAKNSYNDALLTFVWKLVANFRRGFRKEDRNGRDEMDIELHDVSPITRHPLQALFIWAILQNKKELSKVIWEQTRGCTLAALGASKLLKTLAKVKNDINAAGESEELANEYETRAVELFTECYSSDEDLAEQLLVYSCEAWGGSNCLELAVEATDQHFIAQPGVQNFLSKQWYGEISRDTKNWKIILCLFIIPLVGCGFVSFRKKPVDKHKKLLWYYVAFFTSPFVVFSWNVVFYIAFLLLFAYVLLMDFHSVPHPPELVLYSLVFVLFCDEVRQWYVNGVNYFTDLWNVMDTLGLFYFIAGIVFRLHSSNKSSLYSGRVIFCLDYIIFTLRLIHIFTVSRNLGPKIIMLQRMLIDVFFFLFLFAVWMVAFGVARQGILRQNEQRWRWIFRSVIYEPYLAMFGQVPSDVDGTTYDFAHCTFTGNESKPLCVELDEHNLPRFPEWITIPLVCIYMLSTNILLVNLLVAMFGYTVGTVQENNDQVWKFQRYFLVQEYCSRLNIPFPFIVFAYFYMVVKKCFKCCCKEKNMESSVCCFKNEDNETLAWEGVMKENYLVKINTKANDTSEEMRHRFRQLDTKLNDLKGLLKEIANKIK

SMILES	IC50
COc1ccccc1-c1ccc(C(=O)CN2C(=O)NC3(CCCCC3)C2=O)cc1 [Example 13-3]	< 100 nM
Cc1ccccc1-c1ccc(C(=O)CN2C(=O)NC3(CCCCC3)C2=O)cc1 [Example 13-4]	< 100 nM
Cc1cc(C(=O)CN2C(=O)NC3(CCCCC3)C2=O)ccc1-c1ccccc1 [Example 13-5]	< 100 nM
Cc1ccccc1-c1ccc(C(=O)CN2C(=O)NC3(CCCCC3)C2=O)cc1C [Example 13-6]	< 100 nM
Cc1cc(C(=O)CN2C(=O)NC3(CCC(F)(F)CC3)C2=O)ccc1-c1cccnc1 [Example 13-7]	< 100 nM
Cc1cc(C(=O)CN2C(=O)NC3(CCC(F)(F)CC3)C2=O)ccc1-c1cncc(F)c1 [Example 13-8]	< 100 nM
Cc1cc(C(=O)CN2C(=O)NC3(CCC(F)(F)CC3)C2=O)ccc1-c1ccccc1C#N [Example 13-9]	< 100 nM
Cc1cc(C(=O)CN2C(=O)NC3(CCC(F)(F)CC3)C2=O)ccc1-c1cccc2c1CNC2=O [Example 13-10]	< 100 nM
Cc1cc(C(=O)CN2C(=O)NC3(CCC(F)(F)CC3)C2=O)ccc1-c1cccc(C#N)c1 [Example 13-11]	< 100 nM
Cc1cc(C(=O)CN2C(=O)NC3(CCC(F)(F)CC3)C2=O)ccc1-c1cccc(C(N)=O)c1 [Example 13-13]	< 100 nM
Cc1cc(C(=O)CN2C(=O)NC3(CCC(F)(F)CC3)C2=O)ccc1-c1ccccc1 [Example 13-14]	< 100 nM
Cc1cc(C(=O)CN2C(=O)NC3(CCC(F)(F)CC3)C2=O)ccc1-c1cccc2ccncc12 [Example 13-15]	< 100 nM
Cc1cc(C(=O)CN2C(=O)NC3(CCC(F)(F)CC3)C2=O)ccc1-c1cc(F)cc(F)c1 [Example 13-16]	< 100 nM
Cc1cc(C(=O)CN2C(=O)NC3(CCC(F)(F)CC3)C2=O)ccc1-c1cccc(F)c1 [Example 13-17]	< 100 nM
O=C(CN1C(=O)NC2(CCCCC2)C1=O)c1ccc(-c2cccnc2)cc1F [Example 13-18]	< 100 nM
N#Cc1cccc(-c2ccc(C(=O)CN3C(=O)NC4(CCCCC4)C3=O)c(F)c2)c1 [Example 13-19]	< 100 nM
O=C(CN1C(=O)NC2(CCCCC2)C1=O)c1ccc(-c2ccccc2)cc1F [Example 13-20]	< 100 nM
O=C(CN1C(=O)NC2(CCC(F)(F)CC2)C1=O)c1ccc(-c2cccc3cccnc23)c(F)c1 [Example 13-21]	< 100 nM
O=C(CN1C(=O)NC2(CCC(F)(F)CC2)C1=O)c1ccc(-c2cccc3cnccc23)c(F)c1 [Example 13-22]	< 100 nM
Cc1ccncc1-c1ccc(C(=O)CN2C(=O)NC3(CCC(F)(F)CC3)C2=O)cc1Cl [Example 13-23]	< 100 nM
O=C(CN1C(=O)NC2(CCC(F)(F)CC2)C1=O)c1ccc(-c2cccnc2)c(Cl)c1 [Example 13-24]	< 100 nM
N#Cc1ccccc1-c1ccc(C(=O)CN2C(=O)NC3(CCC(F)(F)CC3)C2=O)cc1Cl [Example 13-25]	< 100 nM
O=C(CN1C(=O)NC2(CCC(F)(F)CC2)C1=O)c1ccc(-c2cncc(F)c2)c(Cl)c1 [Example 13-26]	< 100 nM
O=C(CN1C(=O)NC2(CCC(F)(F)CC2)C1=O)c1ccc(-c2ccccc2CO)c(Cl)c1 [Example 13-27]	< 100 nM
NC(=O)c1cccc(-c2ccc(C(=O)CN3C(=O)NC4(CCC(F)(F)CC4)C3=O)cc2Cl)c1 [Example 13-28]	< 100 nM
O=C(CN1C(=O)NC2(CCC(F)(F)CC2)C1=O)c1ccc(-c2cccc3ccncc23)c(Cl)c1 [Example 13-29]	< 100 nM
Cc1ccncc1-c1c(F)cc(C(=O)CN2C(=O)NC3(CCC(F)(F)CC3)C2=O)cc1F [Example 13-30]	< 100 nM

SMILES	IC50
N#Cc1ccccc1-c1c(F)cc(C(=O)CN2C(=O)NC3(CCC(F)(F)CC3)C2=O)cc1F [Example 13-31]	< 100 nM
O=C(CN1C(=O)NC2(CCC(F)(F)CC2)C1=O)c1cc(F)c(-c2ccccc2CO)c(F)c1 [Example 13-32]	< 100 nM
N#Cc1cccc(-c2c(F)cc(C(=O)CN3C(=O)NC4(CCC(F)(F)CC4)C3=O)cc2F)c1 [Example 13-33]	< 500 nM
O=C(CN1C(=O)NC2(CCC(F)(F)CC2)C1=O)c1ccc(-c2ccccc2CO)cc1 [Example 13-34]	< 10 nM
Cc1ccncc1-c1ccc(C(=O)CN2C(=O)NC3(CCC(F)(F)CC3)C2=O)cc1 [Example 13-35]	< 10 nM
O=C(CN1C(=O)NC2(CCC(F)(F)CC2)C1=O)c1ccc(-c2cccc3ccncc23)cc1 [Example 13-36]	< 10 nM
O=C(CN1C(=O)NC2(CCC(F)(F)CC2)C1=O)c1ccc(-c2cncc3ccccc23)cc1 [Example 13-37]	< 10 nM
COc1ccncc1-c1ccc(C(=O)CN2C(=O)NC3(CCC(F)(F)CC3)C2=O)cc1 [Example 13-39]	< 100 nM
O=C(CN1C(=O)NC2(CCC(F)(F)CC2)C1=O)c1ccc(-c2cccc3[nH]ncc23)cc1 [Example 13-40]	< 100 nM
O=C(CN1C(=O)NC2(CCC(F)(F)CC2)C1=O)c1ccc(-c2cccc3cnccc23)cc1 [Example 13-41]	< 100 nM
O=C(CN1C(=O)NC2(CCC(F)(F)CC2)C1=O)c1ccc(-c2cccc3[nH]ccc23)cc1 [Example 13-42]	< 100 nM
O=C(CN1C(=O)NC2(CCC(F)(F)CC2)C1=O)c1ccc(-c2ccnc3ccccc23)cc1 [Example 13-43]	< 100 nM
O=C1Cc2c(cccc2-c2ccc(C(=O)CN3C(=O)NC4(CCC(F)(F)CC4)C3=O)cc2)N1 [Example 13-44]	< 100 nM
COc1ncccc1-c1ccc(C(=O)CN2C(=O)NC3(CCC(F)(F)CC3)C2=O)cc1 [Example 13-45]	< 100 nM
O=C(CN1C(=O)NC2(CCC(F)(F)CC2)C1=O)c1ccc(-c2cccc3cccnc23)cc1 [Example 13-46]	< 100 nM
O=C(CN1C(=O)NC2(CCC(F)(F)CC2)C1=O)c1ccc(-c2ccc3ccccc3n2)cc1 [Example 13-47]	< 100 nM
O=C(CN1C(=O)NC2(CCC(F)(F)CC2)C1=O)c1ccc(-c2cccnc2)cc1 [Example 13-48]	< 100 nM
O=C(CN1C(=O)NC2(CCC(F)(F)CC2)C1=O)c1ccc(-c2ccccn2)cc1 [Example 13-49]	< 100 nM
O=C(CN1C(=O)NC2(CCC(F)(F)CC2)C1=O)c1ccc(-c2ccnc3c2OCCO3)cc1 [Example 13-50]	< 500 nM
Cc1ccncc1-c1ccc(C(=O)CN2CC3(CCCCC3)OC2=O)cc1 [Example 13-51]	< 100 nM
Cc1ccncc1-c1ccc(C(=O)CN2CC3(CCC(F)(F)CC3)OC2=O)cc1 [Example 13-53]	< 100 nM
O=C(CN1CC2(CCC(F)(F)CC2)OC1=O)c1ccc(-c2ccccc2CO)cc1 [Example 13-55]	< 100 nM
Cc1ncccc1-c1ccc(C(=O)CN2CC3(CCC(F)(F)CC3)OC2=O)cc1 [Example 13-56]	< 500 nM
O=C(CN1CC2(CCC(F)(F)CC2)OC1=O)c1ccc(-c2cccc3cccnc23)cc1 [Example 13-57]	< 500 nM
N#Cc1cccc(-c2ccc(C(=O)CN3C(=O)NC4(CCC(F)(F)CC4)C3=O)cc2Cl)c1 [Example 13-68]	< 500 nM
O=C(CN1C(=O)NC2(CCC(F)(F)CC2)C1=O)c1cc2cc(-c3cccnc3)ccc2o1 [Example 13-69]	< 500 nM
Cc1ncccc1-c1ccc(C(=O)CN2C(=O)OC3(CCC(F)(F)CC3)C2=O)cc1 [Example 13-72]	< 100 nM

Other lines, results leading:

IC50	SMILES
< 100 nM	Cc1cc(C(=O)CN2C(=O)NC3(CCCCC3)C2=O)sc1-c1cccnc1 [Example 14-1]
< 100 nM	Cc1cc(C(=O)CN2C(=O)NC3(CCCCC3)C2=O)sc1-c1ccccc1CO [Example 14-2]
< 100 nM	Cc1ccncc1-c1sc(C(=O)CN2C(=O)NC3(CCCCC3)C2=O)cc1C [Example 14-3]
< 100 nM	Cc1cc(C(=O)CN2C(=O)NC3(CCC(F)(F)CC3)C2=O)sc1-c1ccccc1CO [Example 14-4]
< 10 nM	Cc1ccncc1-c1sc(C(=O)CN2C(=O)NC3(CCC(F)(F)CC3)C2=O)cc1C [Example 14-5]
< 100 nM	Cc1cc(C(=O)CN2C(=O)NC3(CCC(F)(F)CC3)C2=O)sc1-c1cnccc1CO [Example 14-6]
< 100 nM	Cc1cc(C(=O)CN2C(=O)NC3(CCC(F)(F)CC3)C2=O)sc1-c1cccnc1 [Example 14-7]
< 100 nM	Cc1cc(C(=O)CN2C(=O)NC3(CCC(F)(F)CC3)C2=O)sc1-c1ccccc1C#N [Example 14-8]
< 100 nM	Cc1cc(C(=O)CN2C(=O)NC3(CCC(F)(F)CC3)C2=O)sc1-c1cccnc1C [Example 14-9]
< 100 nM	Cc1cc(C(=O)CN2C(=O)NC3(CCC(F)(F)CC3)C2=O)sc1-c1cccc(C#N)c1 [Example 14-10]
< 100 nM	Cc1ccccc1-c1sc(C(=O)CN2C(=O)NC3(CCC(F)(F)CC3)C2=O)cc1C [Example 14-11]
< 100 nM	COc1ccccc1-c1sc(C(=O)CN2C(=O)NC3(CCC(F)(F)CC3)C2=O)cc1C [Example 14-12]
< 100 nM	Cc1cc(C(=O)CN2C(=O)NC3(CCC(F)(F)CC3)C2=O)sc1-c1cncc(C#N)c1 [Example 14-13]
< 100 nM	Cc1cc(C(=O)CN2C(=O)NC3(CCC(F)(F)CC3)C2=O)sc1-c1ccccc1Cl [Example 14-14]
< 100 nM	Cc1cc(C(=O)CN2C(=O)NC3(CCC(F)(F)CC3)C2=O)sc1-c1cnccc1C(F)(F)F [Example 14-15]
< 100 nM	COc1ccncc1-c1sc(C(=O)CN2C(=O)NC3(CCC(F)(F)CC3)C2=O)cc1C [Example 14-16]
< 100 nM	Cc1cc(C(=O)CN2C(=O)NC3(CCC(F)(F)CC3)C2=O)sc1-c1cncc(F)c1 [Example 14-17]
< 500 nM	Cc1cc(C(=O)CN2C(=O)NC3(CCC(F)(F)CC3)C2=O)sc1-c1cccc(C(N)=O)c1 [Example 14-18]
< 500 nM	Cc1cc(C(=O)CN2C(=O)NC3(CCC(F)(F)CC3)C2=O)sc1-c1cccnc1CO [Example 14-19]
< 500 nM	Cc1cc(C(=O)CN2C(=O)NC3(CCC(F)(F)CC3)C2=O)sc1-c1cccc2cccnc12 [Example 14-20]
< 500 nM	Cc1cc(C(=O)CN2C(=O)NC3(CCC(F)(F)CC3)C2=O)sc1-c1cccc(CO)c1 [Example 14-21]
